We go through 15 molecules from patent publication US10406086B2, “Moisturizer and cosmetic including the same” (AJINOMOTO CO., INC., priority 2015, dated 2019).

In series [1] the test system is filaggrin gene. The series is described as follows: Filaggrin gene expression test by acyl valines or acyl alanines (real time PCR, 24 hours). The series is classed as cell-based. Particulars: Homo sapiens. The method, then: Human normal epidermal keratinocytes NHEK (NB) (manufactured by KURABO INDUSTRIES LTD.) were precultured with HuMedia-KG2 (manufactured by KURABO INDUSTRIES LTD.) and the precultured human normal epidermal keratinocytes were adjusted in a concentration of 15×10^4 cells/mL. After adjusting the concentration, 2 mL of the culture solution (that is, 30×10^4 cells/well) was poured to a plate having 6 wells and the poured culture solution was cultivated for 1 day. […] C12Ala), decanoyl-alanine (Example 21: C10Ala), octanoyl-alanine (Example 22: C8Ala), hexanoyl-alanine (Example 23: C6Ala), and butanoyl-alanine (Example 24: C4Ala)) were added to the wells so that each of the samples has the concentration illustrated in respective graphs and the added samples were reacted for 24 hours. After the reaction, entire RNA was extracted from the cells and subjected to reverse transcription. The amplified amounts of the target gene (filaggrin) were measured by real time PCR (n=2). […] GAPDH was used as a corrected gene. Calculation was carried out using a comparative CT method. TaqMan (registered trademark) Gene Expression was used as a primer and a probe and FAM was used as a fluorescent dye. The following evaluation was carried out depending on the amplified amounts. The results are listed in Table 2 and 3 and illustrated in FIGS. 4 and 5.

The subject of series [2] is Human normal epidermal keratinocytes NHEK (NB). Put plainly: Cytotoxicity test (Neutral Red, cell survival rate). The class given is cell-based. Particulars: 500 μM, 24 hours; for Cell survival rate (%): relative to light absorbance of the control. The method, then: Human normal epidermal keratinocytes NHEK (NB) (manufactured by KURABO INDUSTRIES LTD.) were precultured with HuMedia-KG2 (manufactured by KURABO INDUSTRIES LTD.) and the precultured human normal epidermal keratinocytes were adjusted in a concentration of 15×10^4 cells/mL. After adjusting the concentration, 2 mL of the culture solution (that is, 30×10^4 cells/well) was poured to a plate having 6 wells and the poured culture solution was cultivated for 1 day. Samples (lauroyl-valine (Example 25: C12Val), decanoyl-valine (Example 26: C10Val), octanoyl-valine (Example 27: C8Val), hexanoyl-valine (Example 28: C6Val), butanoyl-valine (Example 29: C4Val), and acetyl-valine (Example 30: C2Val)) were added to the wells so that each of the samples has the concentration illustrated in respective graphs and the added samples were reacted for 24 hours. Thereafter, the culture medium was discarded and replaced with 2 mL/well of Neutral Red solution. The resultant sample was further cultured for 2 hours. As the Neutral Red solution, a solution prepared by diluting Neutral Red (manufactured by KURABO INDUSTRIES LTD.) with HuMedia-KG2 culture medium/normal saline solution (2:1) to 1/100 was used. The cells stained with the Neutral Red solution were washed with PBS (-) one time, thereafter fixed by 1.5 mL/well of 1% CaCl2/1% formalin solution, extracted by adding 1.5 mL/well of 1% acetic acid/50% ethanol solution at room temperature for 20 minutes. The light absorbance of the resultant sample was measured using a plate reader at 540/630 nm.
The following evaluation was carried out depending on the cell survival rates. The results are listed in Table 4 and illustrated in FIG. 6.

Series [3] is described as follows: Moisture absorption/retention test. The class given is physicochemical. Particulars: for Increased weight ratio after 7 days at 35% RH (%) (B): following 65% RH; for moisturizing power: compared with glycerol and sorbitol; for (B)/(A) × 100(%): ratio of weight increase at 35% RH to that at 65% RH. The text has this: About 1 g of each compound was precisely weighed in a weighing bottle and the weighed samples were placed in a constant-temperature and constant-humidity chamber (LH-30-10, manufactured by NAGANO SCIENCE CO, LTD.) in which the humidity was set to 65% RH to measure a weight increase ratio (A) after 7 days. Subsequently, the same samples were placed in the constant-temperature and constant-humidity chamber in which the humidity was set to 35% RH to measure a weight increase ratio (B) after 7 days. It can be considered that, as the ratio of (B) to (A) becomes higher, more moisture can be retained even when the environment becomes low humidity and thus that the compound having the higher value of the ratio can be considered as a compound having higher moisturizing power.

The mark [4] stands for this setting: 24 hours, NHEK (NB), control = 100%, read-out: Amplified amount (%).
[5] abbreviates: 24 hours, NHEK (NB), read-out: Evaluation (amplified amount).
Where [6] appears, read: 10 μM, 24 hours, NHEK (NB), control = 100%, read-out: Amplified amount (%).
The mark [7] stands for this setting: 10 μM, 24 hours, NHEK (NB), read-out: Evaluation (amplified amount).

SMILES strings stand for the structures. Where two headings read alike, the source gives them in different places. Bounds are passed on as bounds.

Consider `CCCCCCCC(=O)N[C@H](C(=O)O)C(C)C` [Example 16, octanoyl-valine], for which the activity at 500 µM was 302% in series [1] (setting [4]) and greater than 200% in series [1] (setting [5]). Moreover, the “Evaluation (cell survival rate)” value in series [2] is “A (99% or higher)”. In addition, in series [2], the “Cell survival rate (%)” value is given as 100%.

`CCCCCCCCCCCC(=O)N[C@H](C(=O)O)C(C)C` [Example 14, lauroyl-valine]: the results for the activity at 10 µM in series [1] (setting [6]) and in series [1] (setting [7]) were 200% and greater than 200%, respectively. Besides, in series [2], the “Evaluation (cell survival rate)” value is given as “D (Lower than 50%)”. Moreover, the cytotoxicity entry in series [2] (in words) was “high”. In addition, the “Cell survival rate (%)” value in series [2] is on record as 3%.

In the case of `CCCC(=O)N[C@H](C(=O)O)C(C)C` [Example 18, butanoyl-valine], the figures for the activity at 500 µM in series [1] (setting [4]) and in series [1] (setting [5]) were 126% and 100 to 200%, respectively. Moreover, the “Evaluation (cell survival rate)” value in series [2] is given as “A (99% or higher)”. Moreover, the “Cell survival rate (%)” value in series [2] is reported as 102%.

As for `CCCCCCCCCCCC(=O)N[C@@H](C)C(=O)O` [Example 20, lauroyl-alanine], the activity at 10 µM in series [1] (NHEK, 24 h, read-out: Amplified amount (%)) was 128%; in series [1] (NHEK, 24 h, read-out: Evaluation (amplified amount)), 100 to 200%.

As for `CCCCCC(=O)N[C@@H](C)C(=O)O` [Example 23, hexanoyl-alanine], the values for the activity at 500 µM in series [1] (setting [4]) and in series [1] (setting [5]) were 125% and 100 to 200%, respectively.

Take `CCCCCC(=O)N[C@H](C(=O)O)C(C)C` [Example 17, hexanoyl-valine]: the activity at 500 µM in series [1] (setting [4]) turned out to be 112%. For the same molecule, in series [1] (setting [5]), the activity at 500 µM is 100 to 200%. In series [2], the “Evaluation (cell survival rate)” value was “A (99% or higher)” and the “Cell survival rate (%)” value worked out at 99%.

On to `CCCCCCCC(=O)N[C@H](C(=O)[O-])C(C)C.[Na+]` [Example 12, N-octanoyl-L-valine sodium salt], for which, in series [3], the “Increased weight ratio after 7 days at 35% RH (%) (B)” value (“Increased weight ratio … (%) (B)” for short) came out at 8.4%, the “Increased weight Ratio after 7 days at 65% RH (%) (A)” value (“Increased weight Ratio … (%) (A)” for short) was 25.4%, the moisturizing power entry was “high moisturizing power” and the “(B)/(A) × 100(%)” value is 33.2%.

As for `OCC(O)CO` [Comparative Example 3, Glycerol, reference compound], in series [3], the “Increased weight ratio … (%) (B)” value worked out at 13.2%, the “Increased weight Ratio … (%) (A)” value was found to be 48.1% and the “(B)/(A) × 100(%)” value is recorded as 27.4%.

Consider `CCCCCCCC(=O)N[C@@H](C)C(=O)[O-].[Na+]` [Example 13, N-octanoyl-L-alanine sodium salt], for which, in series [3], the “Increased weight ratio … (%) (B)” value turned out to be 10.6%, the “Increased weight Ratio … (%) (A)” value came out at 29.6%, the moisturizing power result is “high moisturizing power” and the “(B)/(A) × 100(%)” value is given as 35.9%.

As to `CCCCCCCCCC(=O)N[C@@H](C)C(=O)O` [Example 21, decanoyl-alanine], the activity at 10 µM was 117% in series [1] (setting [6]) and 100 to 200% in series [1] (setting [7]).

`CCCC(=O)N[C@@H](C)C(=O)O` [Example 24, butanoyl-alanine]: the figures for the activity at 500 µM in series [1] (setting [4]) and in series [1] (setting [5]) were 162% and 100 to 200%, respectively.

As to `OC[C@@H](O)[C@@H](O)[C@H](O)[C@@H](O)CO` [Comparative Example 4, Sorbitol, reference compound], in series [3], the “Increased weight ratio … (%) (B)” value was 0.5%, the “Increased weight Ratio … (%) (A)” value is recorded as 4.2% and the “(B)/(A) × 100(%)” value was 12.0%.

Regarding `CC(=O)N[C@H](C(=O)O)C(C)C` [Example 19, acetyl-valine], the activity at 500 µM in series [1] (setting [4]) worked out at 141%. The activity at 500 µM in series [1] (setting [5]) lay in the range of 100 to 200%. In series [2], the “Evaluation (cell survival rate)” value is “A (99% or higher)” and the “Cell survival rate (%)” value is 105%.

On to `CCCCCCCCCC(=O)N[C@H](C(=O)O)C(C)C` [Example 15, decanoyl-valine], for which the activity at 10 µM in series [1] (setting [6]) was 171%; in series [1] (setting [7]), 100 to 200%. Further, in series [2], the “Evaluation (cell survival rate)” value is “B (75% or higher and lower than 99%)”. In addition, in series [2], the “Cell survival rate (%)” value stood at 75%.

With `CCCCCCCC(=O)N[C@@H](C)C(=O)O` [Example 22, octanoyl-alanine], the activity at 500 µM was 256% in series [1] (setting [4]) and greater than 200% in series [1] (setting [5]).
